In ChEMBL document CHEMBL1122106, “Quantitative structure-activity relationship by distance geometry: quinazolines as dihydrofolate reductase inhibitors” (J Med Chem, 1982):

Each molecule was assayed on Dihydrofolate reductase (Enterococcus faecium).

Compound | -Delta G [kcal/mol]
Nc1nc(O)c2cc(S(=O)(=O)c3ccc4ccccc4c3)ccc2n1 | 9.6
Nc1ncnc2ccc(Sc3ccc4ccccc4c3)cc12 | 6.5
CCOC(=O)c1ccc(CNc2ccc3nc(N)nc(O)c3c2)cc1 | 8.6
Nc1nc(N)c2c(CCc3ccc4ccccc4c3)cccc2n1 | 11.9
Nc1nc(N)c2cc(S(=O)(=O)c3ccc4ccccc4c3)ccc2n1 | 12.4
Nc1nc(N)c2c(Sc3ccc(Cl)c(Cl)c3)cccc2n1 | 9.9
Nc1nc(O)c2cc(S(=O)(=O)c3ccc(Cl)c(Cl)c3)ccc2n1 | 8.2
CCOC(=O)c1ccc(NCc2ccc3nc(N)nc(N)c3c2)cc1 | 11.4
CCCCOC(=O)c1ccc(NCc2ccc3nc(N)nc(N)c3c2C)cc1 | 12.1
Cc1c(NCc2ccc(C(=O)O)cc2)ccc2nc(N)nc(O)c12 | 6.5
CCOC(=O)c1ccc(CNc2ccc3nc(N)nc(O)c3c2C)cc1 | 7.1
Nc1nc(S)nc2ccc(Sc3ccc4ccccc4c3)cc12 | 7.4
Nc1nc(S)c2cc(S(=O)(=O)c3ccc4ccccc4c3)ccc2n1 | 8
Cc1c(CNc2ccc(C(=O)NC(CC(=O)O)C(=O)O)cc2)ccc2nc(N)nc(N)c12 (stereo not drawn) | 12.7
Nc1nc(O)c2cc(Sc3ccc(Cl)c(Cl)c3)ccc2n1 | 9.1
Nc1nc(O)c2cc([S+]([O-])c3ccc4ccccc4c3)ccc2n1 (stereo not drawn) | 8.2

Compound | -Delta G [kcal/mol]
Nc1nc(N)c2c([S+]([O-])c3ccc(Cl)c(Cl)c3)cccc2n1 (stereo not drawn) | 7.3
CCOC(=O)c1ccc(CNc2ccc3nc(N)nc(N)c3c2C)cc1 | 13.1
Nc1ncnc2ccc([S+]([O-])c3ccc4ccccc4c3)cc12 (stereo not drawn) | 7.2
CCCCOC(=O)c1ccc(NCc2ccc3nc(N)nc(N)c3c2Cl)cc1 | 11.4
Oc1nc(S)nc2ccc(Sc3ccc4ccccc4c3)cc12 | 6.2
Nc1nc(N)c2cc(Sc3cccc(C(F)(F)F)c3)ccc2n1 | 13.4
Nc1nc(N)c2c(Cl)c(CNc3ccc(C(=O)O)cc3)ccc2n1 | 12.3
Nc1nc(O)nc2ccc(Sc3ccc4ccccc4c3)cc12 | 6.9
Nc1nc(N)c2c([S+]([O-])c3ccc4ccccc4c3)cccc2n1 (stereo not drawn) | 6.9
CCOC(=O)c1ccc(CNc2ccc3nc(N)nc(O)c3c2Cl)cc1 | 9.3
Nc1nc(N)c2c(S(=O)(=O)c3ccc4ccccc4c3)cccc2n1 | 6.5
Nc1nc(N)c2cc(Sc3ccc(Cl)c(Cl)c3)ccc2n1 | 12.2
Nc1nc(N)c2c(/C=C\c3ccc4ccccc4c3)cccc2n1 | 11.1
Nc1nc(N)c2cc([S+]([O-])c3ccc4ccccc4c3)ccc2n1 (stereo not drawn) | 12.8
Nc1nc(O)c2c(S(=O)(=O)c3ccc4ccccc4c3)cccc2n1 | 9

Next, values leading:

-Delta G [kcal/mol] | Compound
6.9 | O=c1[nH]c(=O)c2cc(Sc3ccc4ccccc4c3)ccc2[nH]1
11 | CCOC(=O)c1ccc(CNc2ccc3nc(N)nc(N)c3c2)cc1
10.6 | CCOC(=O)c1ccc(NCc2ccc3nc(N)nc(O)c3c2)cc1
12.3 | CCOC(=O)c1ccc(NCc2ccc3nc(N)nc(N)c3c2C)cc1
6 | Sc1nc(S)c2cc(Sc3ccc4ccccc4c3)ccc2n1
10.2 | Nc1nc(O)c2cc(Sc3ccc4ccccc4c3)ccc2n1
12.8 | CCOC(=O)c1ccc(NCc2ccc3nc(N)nc(N)c3c2Cl)cc1
7.4 | Nc1nc(O)c2c(Sc3ccc4ccccc4c3)cccc2n1
13.4 | Nc1nc(N)c2cc(S(=O)(=O)c3ccc(Cl)c(Cl)c3)ccc2n1
11.8 | Cc1c(CNc2ccc(C(=O)O)cc2)ccc2nc(N)nc(N)c12
12.2 | CCOC(=O)c1ccc(CNc2ccc3nc(N)nc(N)c3c2Cl)cc1
5.8 | Nc1ncnc2ccc(S(=O)(=O)c3ccc4ccccc4c3)cc12
7.2 | Nc1nc(O)c2cc(NCc3ccc(C(=O)O)cc3)ccc2n1
10.7 | Nc1nc(N)c2c(/C=C/c3ccc4ccccc4c3)cccc2n1
11.2 | CCCCOC(=O)c1ccc(NCc2ccc3nc(N)nc(N)c3c2)cc1
10.9 | Nc1nc(N)c2c(CSc3ccc(Cl)cc3)cccc2n1
8.8 | Nc1nc(O)c2cc(CNc3ccc(C(=O)O)cc3)ccc2n1
10.9 | Nc1nc(N)c2c(Sc3ccc4ccccc4c3)cccc2n1
9.3 | Nc1nc(S)c2cc(Sc3ccc4ccccc4c3)ccc2n1
6.8 | O=c1[nH]c(=S)c2cc(Sc3ccc4ccccc4c3)ccc2[nH]1
9 | Nc1nc(N)c2c(S(=O)(=O)c3ccc(Cl)c(Cl)c3)cccc2n1
13 | Nc1nc(N)c2cc(CNc3ccc(C(=O)O)cc3)ccc2n1
